US4356183A, “Antihypertensive 4-thiazolidinecarboxylic acids (pyridyl derivatives)” (Santen Pharmaceutical Co., Ltd., priority 1978, dated 1982)

System: contractile response to bradykinin (isolated guinea pig ileum)
Experiment: Augmentation of contractile response of isolated guinea pig ileum to bradykinin
Format: cell-based
Conditions: Cavia porcellus, bradykinin 0.005 μg/ml; compound added 5 min before; 30° C.; read-out: Bradykinin AC50 (50% augmentation of bradykinin activity inducing the contraction of guinea pig ileum)

Structure (SMILES): C[C@H](CS)C(=O)N1C(c2ccccc2O)SC[C@H]1C(=O)O (some centres unmarked) [Compound 50]
- AC50: 0.7 nM

Structure (SMILES): COc1ccc(C2SC[C@@H](C(=O)O)N2C(=O)[C@H](C)CS)c(O)c1 (some centres unmarked) [Compound 77]
- AC50: 1.3 nM
